Toxic doses and inconclusive results are not listed. No stated cut-off is given here; in the data, active means T/C of 150% or more; inactive means T/C below 125%.
System: L1210 leukemia ip in BDF1 mice, survival T/C
Assay: NCI In Vivo Anticancer Drug Screen. Data for tumor model L1210 Leukemia (intraperitoneal) in B6D2F1 (BDF1) mice
Conditions: endpoint: mean survival time, higher = longer survival
Outline: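 Survival endpoint. Drug-treated group vs vehicle group, expressed as T divided by C. Tumor passaged by transplantation.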

[1] = dose: 100.0 mg/kg/injection, schedule: Q01DX009 (ip), vehicle: Klucel (hydroxypropylcellulose) (HPC)
[2] = dose: 200.0 mg/kg/injection, schedule: Q01DX009 (ip), vehicle: Klucel (hydroxypropylcellulose) (HPC)
[3] = dose: 100.0 mg/kg/injection, schedule: Q01DX009 (ip), vehicle: saline with Tween-80
[4] = dose: 200.0 mg/kg/injection, schedule: Q01DX009 (ip), vehicle: saline with Tween-80
[5] = dose: 25.0 mg/kg/injection, schedule: Q01DX009 (ip), vehicle: Klucel (hydroxypropylcellulose) (HPC)
[6] = dose: 50.0 mg/kg/injection, schedule: Q01DX009 (ip), vehicle: Klucel (hydroxypropylcellulose) (HPC)
[7] = dose: 10.0 mg/kg/injection, schedule: Q01DX001 (ip), vehicle: saline
[8] = dose: 40.0 mg/kg/injection, schedule: Q01DX001 (ip), vehicle: saline
[9] = dose: 100.0 mg/kg/injection, schedule: Q04DX003 (ip), vehicle: Klucel (hydroxypropylcellulose) (HPC)
[10] = dose: 200.0 mg/kg/injection, schedule: Q04DX003 (ip), vehicle: Klucel (hydroxypropylcellulose) (HPC)
[11] = dose: 400.0 mg/kg/injection, schedule: Q04DX003 (ip), vehicle: Klucel (hydroxypropylcellulose) (HPC)
[12] = dose: 100.0 mg/kg/injection, schedule: Q04DX002 (ip), vehicle: other
[13] = dose: 200.0 mg/kg/injection, schedule: Q04DX002 (ip), vehicle: other
[14] = dose: 400.0 mg/kg/injection, schedule: Q04DX002 (ip), vehicle: other
[15] = dose: 20.0 mg/kg/injection, schedule: Q01DX001 (ip), vehicle: saline
[16] = dose: 50.0 mg/kg/injection, schedule: Q01DX009 (ip), vehicle: saline with Tween-80
[17] = dose: 100.0 mg/kg/injection, schedule: Q04DX003 (ip), vehicle: saline with Tween-80
[18] = dose: 200.0 mg/kg/injection, schedule: Q04DX003 (ip), vehicle: saline with Tween-80
[19] = dose: 400.0 mg/kg/injection, schedule: Q04DX003 (ip), vehicle: saline with Tween-80

Measured: T/C

O=C(CN1C(=O)C(=O)O/C1=C/c1ccccc1)OCc1ccccc1
inactive: [1] 105 % of control | [2] 103 % of control

CC(=O)OC(C)(C)Cc1ccccc1
inactive: [3] 90 % of control | [4] 108 % of control

NCCc1ccc(OCc2ccccc2)c(OCc2ccccc2)c1
inactive: dose: 12.5 mg/kg/injection, schedule: Q01DX009 (ip), vehicle: saline 108 % of control | dose: 12.5 mg/kg/injection, schedule: Q04DX003 (ip), vehicle: saline 98 % of control | dose: 25.0 mg/kg/injection, schedule: Q01DX009 (ip), vehicle: saline 97 % of control | dose: 25.0 mg/kg/injection, schedule: Q04DX003 (ip), vehicle: saline 102 % of control | dose: 50.0 mg/kg/injection, schedule: Q04DX003 (ip), vehicle: saline 98 % of control

O=C(O)c1ccccc1Cc1cccs1
inactive: dose: 100.0 mg/kg/injection, schedule: Q01DX001 (ip), vehicle: saline with Tween-80 98 % of control | dose: 200.0 mg/kg/injection, schedule: Q01DX001 (ip), vehicle: saline with Tween-80 95 % of control | dose: 400.0 mg/kg/injection, schedule: Q01DX001 (ip), vehicle: saline with Tween-80 92 % of control

Brc1csnn1
inactive: dose: 50.0 mg/kg/injection, schedule: Q01DX001 (ip), vehicle: carboxymethylcellulose (CMC) 98 % of control | dose: 100.0 mg/kg/injection, schedule: Q01DX001 (ip), vehicle: carboxymethylcellulose (CMC) 110 % of control | dose: 200.0 mg/kg/injection, schedule: Q01DX001 (ip), vehicle: carboxymethylcellulose (CMC) 95 % of control

CCCCNC(=O)Oc1c(Cl)cc(Cl)c(Cl)c1[N+](=O)[O-]
inactive: dose: 12.5 mg/kg/injection, schedule: Q01DX009 (ip), vehicle: Klucel (hydroxypropylcellulose) (HPC) 96 % of control | [5] 112 % of control | [6] 101 % of control

Cc1ccc(N2C=C(c3ccccc3)CC2=O)cc1
inactive: dose: 100.0 mg/kg/injection, schedule: Q04DX002 (ip), vehicle: saline with Tween-80 107 % of control | dose: 200.0 mg/kg/injection, schedule: Q04DX002 (ip), vehicle: saline with Tween-80 100 % of control | dose: 400.0 mg/kg/injection, schedule: Q04DX002 (ip), vehicle: saline with Tween-80 104 % of control

CSC(=O)SC
inactive: [3] 101 % of control

C1CN1P1(N2CC2)=NP(N2CC2)(N2CC2)=NP(N2CC2)(N2CC2)=NP(N2CC2)(N2CC2)=N1
inactive: dose: 4.4 mg/kg/injection, schedule: Q04DX003 (ip), vehicle: saline 114 % of control | dose: 6.6 mg/kg/injection, schedule: Q04DX003 (ip), vehicle: saline 116 % of control | [7] 118 % of control | dose: 10.0 mg/kg/injection, schedule: Q04DX003 (ip), vehicle: saline 119 % of control | dose: 20.0 mg/kg/injection, schedule: Q04DX003 (ip), vehicle: saline 117 % of control | [8] 124 % of control | dose: 40.0 mg/kg/injection, schedule: Q04DX003 (ip), vehicle: saline 109 % of control

S=C(Nc1ccccc1)Nc1ccccc1S
inactive: [1] 97 % of control | [9] 98 % of control | [2] 92 % of control | [10] 95 % of control | dose: 400.0 mg/kg/injection, schedule: Q01DX009 (ip), vehicle: Klucel (hydroxypropylcellulose) (HPC) 92 % of control | [11] 95 % of control

O=c1oc(-c2ccccc2)c(-c2ccccc2)o1
inactive: [12] 100 % of control | [13] 103 % of control | [14] 96 % of control

O=C1CC2(C(=O)O)CC3CC2C(O1)C3I (stereo not given)
inactive: dose: 100.0 mg/kg/injection, schedule: Q01DX009 (ip), vehicle: carboxymethylcellulose (CMC) 86 % of control | dose: 100.0 mg/kg/injection, schedule: Q04DX003 (ip), vehicle: carboxymethylcellulose (CMC) 105 % of control | dose: 200.0 mg/kg/injection, schedule: Q01DX009 (ip), vehicle: carboxymethylcellulose (CMC) 96 % of control | dose: 200.0 mg/kg/injection, schedule: Q04DX003 (ip), vehicle: carboxymethylcellulose (CMC) 97 % of control | dose: 400.0 mg/kg/injection, schedule: Q01DX009 (ip), vehicle: carboxymethylcellulose (CMC) 94 % of control | dose: 400.0 mg/kg/injection, schedule: Q04DX003 (ip), vehicle: carboxymethylcellulose (CMC) 103 % of control

O=S(=O)(O)c1ccncc1
inactive: dose: 100.0 mg/kg/injection, schedule: Q01DX001 (ip), vehicle: saline 96 % of control | dose: 100.0 mg/kg/injection, schedule: Q01DX009 (ip), vehicle: saline 96 % of control | dose: 200.0 mg/kg/injection, schedule: Q01DX001 (ip), vehicle: saline 91 % of control | dose: 200.0 mg/kg/injection, schedule: Q01DX009 (ip), vehicle: saline 87 % of control | dose: 400.0 mg/kg/injection, schedule: Q01DX001 (ip), vehicle: saline 88 % of control | dose: 400.0 mg/kg/injection, schedule: Q01DX009 (ip), vehicle: saline 96 % of control

C[As](C)N
inactive: [7] 102 % of control | dose: 15.0 mg/kg/injection, schedule: Q01DX001 (ip), vehicle: saline 93 % of control | [15] 120 % of control | dose: 30.0 mg/kg/injection, schedule: Q01DX001 (ip), vehicle: saline 91 % of control | dose: 60.0 mg/kg/injection, schedule: Q01DX001 (ip), vehicle: saline 90 % of control

COc1ccccc1C(Cc1ccc(N2C(N)=NC(N)=NC2(C)C)cc1)C(=O)Nc1ccc(S(=O)(=O)F)cc1 (stereo not given)
inactive: dose: 100.0 mg/kg/injection, schedule: Q01DX001 (ip), vehicle: Klucel (hydroxypropylcellulose) (HPC) 101 % of control | dose: 200.0 mg/kg/injection, schedule: Q01DX001 (ip), vehicle: Klucel (hydroxypropylcellulose) (HPC) 101 % of control | dose: 400.0 mg/kg/injection, schedule: Q01DX001 (ip), vehicle: Klucel (hydroxypropylcellulose) (HPC) 99 % of control

Cc1cc(C(N)=O)c(C(N)=O)c(=O)[nH]1
inactive: dose: 75.0 mg/kg/injection, schedule: Q01DX001 (ip), vehicle: water 97 % of control | dose: 150.0 mg/kg/injection, schedule: Q01DX001 (ip), vehicle: water 92 % of control

NC(=S)S/C=C/C(=O)O
inactive: [16] 96 % of control | [3] 93 % of control | [17] 110 % of control | [4] 86 % of control | [18] 100 % of control | [19] 97 % of control

Cc1ccccc1SCC(N)=O
inactive: [9] 91 % of control | [10] 98 % of control | [11] 107 % of control

NC(=S)N/N=C(\c1ccccc1)c1cccc2ccccc12
inactive: [5] 91 % of control | [6] 91 % of control | dose: 100.0 mg/kg/injection, schedule: Q04DX002 (ip), vehicle: Klucel (hydroxypropylcellulose) (HPC) 93 % of control

[Ni+2].[O-]c1ccc(Cl)cc1C=NCc1ccccn1.[O-]c1ccc(Cl)cc1C=NCc1ccccn1
inactive: [17] 93 % of control | [18] 93 % of control

O=C1c2cc(-c3ccccc3)c(-c3ccccc3)cc2C(c2ccccc2)(c2ccccc2)C1(Cl)Cl
inactive: [16] 100 % of control | [3] 100 % of control | [4] 95 % of control

CCOP(=O)(OCC)Oc1cc(C)c(C#N)c(C)c1
inactive: dose: 5.0 mg/kg/injection, schedule: Q01DX001 (ip), vehicle: saline 108 % of control | [7] 108 % of control | [15] 100 % of control | [8] 103 % of control

O=C(COc1ccc(Cl)cc1Cl)OCCBr
inactive: [12] 96 % of control | [13] 118 % of control | [14] 93 % of control

OC(C(c1ccccc1)c1ccccn1)(C(F)(F)F)C(F)(F)F (stereo not given)
inactive: [3] 106 % of control | [17] 94 % of control | [4] 104 % of control | [18] 100 % of control | dose: 400.0 mg/kg/injection, schedule: Q01DX009 (ip), vehicle: saline with Tween-80 97 % of control | [19] 97 % of control
